Data reported in patent US20140187559A1, “INHIBITORS OF THE FIBROBLAST GROWTH FACTOR RECEPTOR” (BLUEPRINT MEDICINES CORPORATION, priority 2012, published 2014).

Experiments:
wild type FGFR-1 = target: T1, wild type FGFR-1 (Homo sapiens, UniProt P11362); experiment: FGFR-1 wild type assay at Km (Caliper mobility shift); type: biochemical; settings: 400 uM ATP, 25 C, 90 minutes; read-out: FGFR1 IC50
T1 construct: purchased Carna Biosciences, Inc
Procedure: (§1) In order to assess the activity of chemical compounds against the relevant kinase of interest, the Caliper LifeSciences electrophoretic mobility shift technology platform is utilized. Fluorescently labeled substrate peptide is incubated in the presence dosed levels of compounds, a set concentration of kinase and of ATP, so that a reflective proportion of the peptide is phosphorylated. At the end of the reaction, the mix of phosphorylated (product) and non-phosphorylated (substrate) peptides are passed through the microfluidic system of the Caliper LabChip® EZ Reader II, under an applied potential difference. The presence of the phosphate group on the product peptide provides a difference in mass and charge between the product peptide and the substrate peptide, resulting in a separation of the substrate and product pools in the sample. As the pools pass the LEDS within the instrument, these pools are detected and resolved as separate peaks. The ratio between these peaks therefore reflects the activity of the chemical matter at that concentration in that well, under those conditions.
(§2) The reaction was stopped by the addition of 70 ul of Stop buffer (100 mM HEPES pH 7.5, 0.015% Brij 35, 35 mM EDTA and 0.2% of Coating Reagent 3 (Caliper Lifesciences)). The plate was then read on a Caliper EZReader 2 (protocol settings: —1.9 psi, upstream voltage—700, downstream voltage—3000, post sample sip 35 s).

wild type FGFR-4 = target: T2, wild type FGFR-4 (Homo sapiens, UniProt P22455); experiment: FGFR-4 wild type assay at Km (Caliper mobility shift); type: biochemical; settings: for Ratio FGFR1/FGFR4: [IC50 for FGFR1]/[IC50 for FGFR4]; for IC50: 400 uM ATP, 25 C, 90 minutes, read-out: FGFR4 IC50
T2 construct: purchased Carna Biosciences, Inc
T2 sequence (P22455 22-802): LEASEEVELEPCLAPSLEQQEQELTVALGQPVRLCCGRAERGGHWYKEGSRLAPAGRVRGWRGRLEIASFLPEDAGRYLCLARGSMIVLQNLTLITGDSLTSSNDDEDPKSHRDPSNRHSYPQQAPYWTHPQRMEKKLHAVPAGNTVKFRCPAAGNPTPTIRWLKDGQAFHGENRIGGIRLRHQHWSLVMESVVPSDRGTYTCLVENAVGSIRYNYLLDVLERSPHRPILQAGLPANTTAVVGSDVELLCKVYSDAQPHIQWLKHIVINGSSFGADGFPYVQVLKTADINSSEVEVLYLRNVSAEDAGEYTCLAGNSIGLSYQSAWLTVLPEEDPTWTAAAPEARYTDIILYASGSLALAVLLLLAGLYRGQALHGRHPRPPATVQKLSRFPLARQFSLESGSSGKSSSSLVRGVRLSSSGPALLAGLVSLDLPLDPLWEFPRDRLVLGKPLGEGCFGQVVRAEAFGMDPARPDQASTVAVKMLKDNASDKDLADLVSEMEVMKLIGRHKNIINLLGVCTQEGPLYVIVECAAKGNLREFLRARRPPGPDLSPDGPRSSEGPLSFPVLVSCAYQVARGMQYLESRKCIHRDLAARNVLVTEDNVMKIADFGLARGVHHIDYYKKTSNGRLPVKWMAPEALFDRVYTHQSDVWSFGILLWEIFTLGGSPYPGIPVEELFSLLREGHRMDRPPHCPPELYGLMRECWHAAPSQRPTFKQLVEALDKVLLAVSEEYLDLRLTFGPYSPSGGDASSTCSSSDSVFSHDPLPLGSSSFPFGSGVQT
Procedure: as §1
as §2, with “LabChip® EZ Reader II” for “EZReader 2”

T1 sequence (P11362 22-822): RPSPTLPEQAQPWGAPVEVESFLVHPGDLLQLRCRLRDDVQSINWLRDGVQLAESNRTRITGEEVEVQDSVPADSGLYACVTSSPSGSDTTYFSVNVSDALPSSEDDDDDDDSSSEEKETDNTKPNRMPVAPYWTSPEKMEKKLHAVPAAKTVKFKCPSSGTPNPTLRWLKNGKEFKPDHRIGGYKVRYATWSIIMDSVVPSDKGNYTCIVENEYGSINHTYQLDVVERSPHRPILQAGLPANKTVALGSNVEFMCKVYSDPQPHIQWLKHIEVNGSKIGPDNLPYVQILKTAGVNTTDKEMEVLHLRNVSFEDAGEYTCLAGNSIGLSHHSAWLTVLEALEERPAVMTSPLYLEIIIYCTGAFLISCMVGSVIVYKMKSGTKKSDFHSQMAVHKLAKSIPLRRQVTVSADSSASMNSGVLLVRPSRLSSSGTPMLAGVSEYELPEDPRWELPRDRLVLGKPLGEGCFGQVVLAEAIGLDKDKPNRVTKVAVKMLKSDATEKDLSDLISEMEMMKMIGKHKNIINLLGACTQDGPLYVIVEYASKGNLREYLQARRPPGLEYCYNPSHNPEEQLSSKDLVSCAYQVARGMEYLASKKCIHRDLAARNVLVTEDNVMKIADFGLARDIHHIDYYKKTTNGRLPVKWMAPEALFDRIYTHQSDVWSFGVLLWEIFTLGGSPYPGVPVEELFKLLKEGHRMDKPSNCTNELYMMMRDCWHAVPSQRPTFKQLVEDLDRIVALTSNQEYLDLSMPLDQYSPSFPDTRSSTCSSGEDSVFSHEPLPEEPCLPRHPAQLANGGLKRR

| IC50 (wild type FGFR-1) [nM] | Ratio FGFR1/FGFR4 (wild type FGFR-4) | IC50 (wild type FGFR-4) [nM] | Structure (SMILES) |
| --- | --- | --- | --- |
| 10 to 100 |  |  | C=CC(=O)N(CCCCN(CC)CC)c1ncc2cc(-c3c(Cl)c(OC)cc(OC)c3Cl)c(NC(=O)NC(C)(C)C)nc2n1 [COMPOUND 55, N-(7-(3-(tert-butyl)ureido)-6-(2,6-dichloro-3,5-dimethoxyphenyl)pyrido[2,3-d]pyrimidin-2-yl)-N-(4-(diethylamino)butyl)acrylamide] |
| 10 to 100 | B (the ratio is ≧200 and <500) |  | C=CC(=O)Nc1cccc(F)c1Nc1ncc2cc(-c3c(Cl)c(OC)cc(OC)c3Cl)cc(OC)c2n1 [COMPOUND 47] |
| 100 to 1000 | E (the ratio is ≧10 and <50) | 10 to 100 | C=CS(=O)(=O)Nc1cccc(C)c1Nc1ncc2cc(-c3c(Cl)c(OC)cc(OC)c3Cl)ccc2n1 [COMPOUND 49A] |
| 100 to 1000 | C (the ratio is ≧100 and <200) |  | C=CC(=O)Nc1cc(N2CCOCC2)cc(C)c1Nc1ncc2cc(-c3c(Cl)c(OC)cc(OC)c3Cl)ccc2n1 [COMPOUND 53] |
| 100 to 1000 | E (the ratio is ≧10 and <50) |  | C=CC(=O)Nc1cccc(C)c1Nc1ncc2c(n1)N(C)C(=O)N(c1c(Cl)c(OC)cc(OC)c1Cl)C2 [COMPOUND 48, N-(2-((6-(2,6-dichloro-3,5-dimethoxyphenyl)-8-methyl-7-oxo-5,6,7,8-tetrahydropyrimido[4,5-d]pyrimidin-2-yl)amino)-3-methylphenyl)acrylamide] |
| 100 to 1000 | C (the ratio is ≧100 and <200) |  | C=CC(=O)Nc1ccc(F)c(F)c1Nc1ncc2cc(-c3c(Cl)c(OC)cc(OC)c3Cl)ccc2n1 [COMPOUND 37] |
| 10 to 100 | B (the ratio is ≧200 and <500) |  | C=CC(=O)Nc1ccccc1Nc1cc2c(cn1)cc(-c1c(Cl)c(OC)cc(OC)c1Cl)c(=O)n2C [COMPOUND 31] |
| 100 to 1000 |  |  | C=CC(=O)Nc1cccc(C)c1Nc1ncc2cc(-c3c(Cl)c(OC)cc(OC)c3Cl)cc(OC)c2n1 [COMPOUND 41] |
| 100 to 1000 | E (the ratio is ≧10 and <50) |  | C=CC(=O)Nc1cccc(F)c1Nc1cc2c(cn1)cc(-c1c(Cl)c(OC)cc(OC)c1Cl)c(=O)n2C [COMPOUND 46] |
|  |  | 10 to 100 | C=CC(=O)Nc1ccc(F)c(C)c1Nc1ncc2cc(-c3c(Cl)c(OC)cc(OC)c3Cl)ccc2n1 [COMPOUND 33] |
| 100 to 1000 |  |  | C=CC(=O)Nc1cccc(C)c1Nc1ncc2cc(-c3c(Cl)c(OC)cc(OC)c3Cl)cc(F)c2n1 [COMPOUND 34, N-(2-((6-(2,6-dichloro-3,5-dimethoxyphenyl)-8-fluoroquinazolin-2-yl)amino)-3-methylphenyl)acrylamide] |
|  |  | 10 to 100 | C=CC(=O)Nc1cc(Cl)cc(C)c1Nc1ncc2cc(-c3c(Cl)c(OC)cc(OC)c3Cl)ccc2n1 [COMPOUND 49] |
| 10 to 100 |  |  | C=CC(=O)Nc1cccc(C)c1Nc1ncc2cc(-c3c(Cl)c(OC)cc(OC)c3Cl)c(OC)cc2n1 [COMPOUND 42, N-(2-((6-(2,6-dichloro-3,5-dimethoxyphenyl)-7-methoxyquinazolin-2-yl)amino)-3-methylphenyl)acrylamide] |
| 100 to 1000 |  |  | C=C(C)C(=O)Nc1cccc(C)c1Nc1ncc2cc(-c3c(Cl)c(OC)cc(OC)c3Cl)ccc2n1 [COMPOUND 29] |
|  | E (the ratio is ≧10 and <50) | 100 to 1000 | C=CC(=O)Nc1ccccc1Nc1cc2nc(NC(=O)NC(C)(C)C)c(-c3cc(OC)cc(OC)c3)cc2cn1 [COMPOUND 44] |

The next lines start with the compound.

| Structure (SMILES) | IC50 (wild type FGFR-1) [nM] | Ratio FGFR1/FGFR4 (wild type FGFR-4) | IC50 (wild type FGFR-4) [nM] |
| --- | --- | --- | --- |
| C=CC(=O)Nc1cccc(OC)c1Nc1ncc2cc(-c3c(Cl)c(OC)cc(OC)c3Cl)ccc2n1 [COMPOUND 30, N-(2-((6-(2,6-dichloro-3,5-dimethoxyphenyl)quinazolin-2-yl)amino)-3-methoxyphenyl)acrylamide] | 100 to 1000 |  |  |
| C=CC(=O)N(C)c1ncc2cc(-c3c(Cl)c(OC)cc(OC)c3Cl)cnc2n1 [COMPOUND 8] | 100 to 1000 | E (the ratio is ≧10 and <50) |  |
| C=CC(=O)N(C)c1ncc2cc(-c3cc(OC)cc(OC)c3)c(=O)n(C)c2n1 [COMPOUND 3] | > 1000 | A (the ratio is >500) | 10 to 100 |
| C=CC(=O)N(C)c1ncc2c(n1)N(C)C(=O)N(c1c(Cl)c(OC)cc(OC)c1Cl)C2 [COMPOUND 14] | 100 to 1000 |  | 10 to 100 |
| C=CC(=O)Nc1cccc(C)c1Nc1ncc2cc(-c3c(Cl)c(OC)cc(OC)c3Cl)cnc2n1 [COMPOUND 26, N-(2-((6-(2,6-dichloro-3,5-dimethoxyphenyl)pyrido[2,3-d]pyrimidin-2-yl)amino)-3-methylphenyl)acrylamide] | 100 to 1000 |  |  |
| C=CC(=O)Nc1cccc(C(F)(F)F)c1Nc1ncc2cc(-c3c(Cl)c(OC)cc(OC)c3Cl)ccc2n1 [COMPOUND 51] | > 1000 | F (the ratio of [IC50 for FGFR1]/[IC50 for FGFR4] is less than 10) | 10 to 100 |
| C=CC(=O)Nc1cccc(F)c1Nc1ncc2cc(-c3c(Cl)c(OC)cc(OC)c3Cl)ccc2n1 [COMPOUND 27] | 10 to 100 | C (the ratio is ≧100 and <200) |  |
| C=CC(=O)Nc1ccccc1Nc1nccc(N2CCN(C(=O)Nc3ccc(C#N)cc3)CC2)n1 [COMPOUND 23] | > 1000 | A (the ratio is >500) | 100 to 1000 |
| C=CC(=O)Nc1cccc(C)c1Oc1ncc2cc(-c3c(Cl)c(OC)cc(OC)c3Cl)ccc2n1 [COMPOUND 25A] |  | D (the ratio is ≧50 and <100) | 100 to 1000 |
| C=CC(=O)N(C)c1ncc2nc(-c3cc(OC)cc(OC)c3)c(=O)n(C)c2n1 [COMPOUND 4] | > 1000 | B (the ratio is ≧200 and <500) | 100 to 1000 |
| C=CC(=O)Nc1ccccc1-c1ccn2c(-c3cccc(NC(=O)NCC(F)(F)F)c3)cnc2c1 [COMPOUND 21, N-(2-(3-(3-(3-(2,2,2-trifluoroethyl)ureido)phenyl)imidazo[1,2-a]pyridin-7-yl)phenyl)acrylamide] |  | B (the ratio is ≧200 and <500) | 100 to 1000 |
| C=CC(=O)N(C)c1ncc2c(n1)N(C)C(=O)N(c1cc(OC)cc(OC)c1)C2 [COMPOUND 5] |  |  | 10 to 100 |
| C=CC(=O)Nc1ccccc1Nc1nccc(N2CCCC(NS(=O)(=O)CCC)C2)n1 (stereo not shown) [COMPOUND 11, N-(2-((4-(3-(propylsulfonamido)piperidin-1-yl)pyrimidin-2-yl)amino)phenyl)acrylamide] |  |  | 100 to 1000 |
| C=CC(=O)Nc1ccccc1-c1ccn2c(-c3cc(NC(=O)NCC(F)(F)F)cc(OC(C)C)c3)cnc2c1 [COMPOUND 38, N-(2-(3-(3-isopropoxy-5-(3-(2,2,2-trifluoroethyl)ureido)phenyl)imidazo[1,2-a]pyridin-7-yl)phenyl)acrylamide] | > 1000 | E (the ratio is ≧10 and <50) | 100 to 1000 |
| C=CC(=O)Nc1cccc(Cl)c1Nc1ncc2cc(-c3cc(C(N)=O)ccc3C)ccc2n1 [COMPOUND 17] |  | B (the ratio is ≧200 and <500) | 10 to 100 |
| C=CC(=O)Nc1cccc(C)c1Nc1ncc2cc(-c3c(Cl)c(OC)cc(OC)c3Cl)c(=O)n(C)c2n1 [COMPOUND 43, N-(2-((6-(2,6-dichloro-3,5-dimethoxyphenyl)-8-methyl-7-oxo-7,8-dihydropyrido[2,3-d]pyrimidin-2-yl)amino)-3-methylphenyl)acrylamide] | 100 to 1000 |  |  |
| C=CC(=O)Nc1cccc(C)c1Nc1ncc2cc(-c3c(Cl)ccc(OC)c3F)ccc2n1 [COMPOUND 17A] |  | E (the ratio is ≧10 and <50) | 10 to 100 |
